Series [1] has as its target Human Serum Albumin (HSA) (Homo sapiens (Human), UniProt P02768). The series can be described thus: Chromatographic determination of Human Serum Albumin (HSA) binding. The following applies: ChiralPak HSA column, retention time converted to % HSA. It counts as in vitro ADME. The protocol: 5B. Chromatographic Determination of Human Serum Albumin (HSA) Assay
Chromatographic determination of Human Serum Albumin (HSA) values was performed on a UPLC-MS system using a ChiralPak® HSA column (p/n: 58469AST) from Sigma Aldrich. Mobile phase A consisted of 50 mM ammonium acetate buffer in water adjusted to pH=7.4, and mobile phase B was 2-propanol. The column compartment was kept at constant temperature of 30° C. Determination of retention time on the HSA column was performed by injecting […] of 0.5 mM of compound (in DMSO) using a linear gradient from 0%-30% B in 2.5 minutes, followed by a hold at 30% B for 2 minutes, and the final equilibration step from […] in 1.5 minutes, for a total run time of 6 minutes. Flow rate was kept constant throughout the gradient and set to 1.8 mL/min. Compound retention time on the HSA column was converted to % HSA values according to a previously published protocol (Valko, et. al, 2003) correlating column retention times to standard plasma protein binding (PPB) values obtained from dialysis experiments. HSA data for certain compounds are summarized below in Table 8 below.
Valko, K., Nunhuck, S., Bevan, C., Abraham, M. H., Reynolds, D. P. Fast Gradient HPLC Method to Determine Compounds Binding to Human Serum Albumin. Relationships with Octanol/Water and Immobilized Artificial Membrane Lipophilicity. J. of Pharm. Sci. 2003, 92, 2236-2248.

The target of series [2] is F508del-CFTR (Homo sapiens (Human), UniProt P13569, DEL508-508). Put plainly: Ussing chamber chloride transport experiments in HBE cells. It counts as cell-based. The following applies: HBE cells. The protocol: Ussing chamber experiments were performed on polarized airway epithelial cells expressing F508del to further characterize the F508del modulators identified in the optical assays. Non-CF and CF airway epithelia were isolated from bronchial tissue, cultured as previously described (Galietta, L. J. V., Lantero, S., Gazzolo, A., Sacco, O., Romano, L., Rossi, G. A., & Zegarra-Moran, O. (1998) In Vitro Cell. Dev. Biol. 34, 478-481), and plated onto Costar® Snapwell™ filters that were precoated with NIH3T3-conditioned media. After four days the apical media was removed and the cells were grown at an air liquid interface for >14 days prior to use. […] CF-HBE were isolated from patients homozygous for […] or compound heterozygous for F508del with an different disease causing mutation on the other allele.
F508del-CFTR, sequence (P13569 other isoform, or with tags, fused parts or gaps del F508-F508): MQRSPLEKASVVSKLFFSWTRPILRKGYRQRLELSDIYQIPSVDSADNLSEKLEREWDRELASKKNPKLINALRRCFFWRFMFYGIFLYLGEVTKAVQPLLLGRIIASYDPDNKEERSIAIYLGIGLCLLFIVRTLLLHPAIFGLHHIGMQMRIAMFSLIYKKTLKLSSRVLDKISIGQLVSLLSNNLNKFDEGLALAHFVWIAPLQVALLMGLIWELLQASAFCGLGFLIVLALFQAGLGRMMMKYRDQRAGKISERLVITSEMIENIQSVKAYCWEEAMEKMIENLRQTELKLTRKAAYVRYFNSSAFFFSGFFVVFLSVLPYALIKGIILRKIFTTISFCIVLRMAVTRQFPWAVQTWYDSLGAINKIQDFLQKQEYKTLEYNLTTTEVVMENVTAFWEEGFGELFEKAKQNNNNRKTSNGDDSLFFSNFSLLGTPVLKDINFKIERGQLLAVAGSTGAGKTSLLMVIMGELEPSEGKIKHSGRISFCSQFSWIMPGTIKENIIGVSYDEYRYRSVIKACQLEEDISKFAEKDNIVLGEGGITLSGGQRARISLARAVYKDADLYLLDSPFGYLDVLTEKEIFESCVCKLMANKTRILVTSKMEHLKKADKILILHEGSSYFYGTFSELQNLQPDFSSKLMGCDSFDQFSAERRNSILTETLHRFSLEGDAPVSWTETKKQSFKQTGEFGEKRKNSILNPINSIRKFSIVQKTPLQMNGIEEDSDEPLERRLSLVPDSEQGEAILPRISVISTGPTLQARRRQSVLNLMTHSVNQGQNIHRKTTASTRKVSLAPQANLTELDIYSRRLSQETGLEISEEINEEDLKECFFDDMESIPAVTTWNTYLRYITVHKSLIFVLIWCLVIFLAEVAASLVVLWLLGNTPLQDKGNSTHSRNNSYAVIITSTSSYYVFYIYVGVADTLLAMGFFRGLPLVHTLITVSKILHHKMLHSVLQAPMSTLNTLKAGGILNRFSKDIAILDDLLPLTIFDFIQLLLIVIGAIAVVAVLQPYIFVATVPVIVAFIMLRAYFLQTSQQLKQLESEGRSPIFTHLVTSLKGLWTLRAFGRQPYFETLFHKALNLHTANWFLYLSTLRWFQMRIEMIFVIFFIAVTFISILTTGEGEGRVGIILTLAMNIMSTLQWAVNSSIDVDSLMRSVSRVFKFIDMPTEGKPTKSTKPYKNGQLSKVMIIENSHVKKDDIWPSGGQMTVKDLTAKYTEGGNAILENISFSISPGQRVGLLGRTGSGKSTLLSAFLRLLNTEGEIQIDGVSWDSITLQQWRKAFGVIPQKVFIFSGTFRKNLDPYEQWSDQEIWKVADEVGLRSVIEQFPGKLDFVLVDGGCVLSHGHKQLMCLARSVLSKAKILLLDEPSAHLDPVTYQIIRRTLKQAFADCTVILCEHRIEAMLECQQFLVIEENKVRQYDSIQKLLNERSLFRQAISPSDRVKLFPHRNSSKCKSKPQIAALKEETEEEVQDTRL
HBE grown on Costar® Snapwell™ cell culture inserts were mounted in an Ussing chamber (Physiologic Instruments, Inc., San Diego, Calif.), and the transepithelial resistance and short-circuit current in the presence of a basolateral to apical Cl^− gradient (ISC) were measured using a voltage-clamp system (Department of Bioengineering, University of Iowa, Iowa). Briefly, HBE were examined under voltage-clamp recording conditions (Vhold=0 mV) at 37° C. The basolateral solution contained (in mM) 145 NaCl, 0.83 K2HPO4, 3.3 KH2PO4, 1.2 MgCl2, 1.2 CaCl2, 10 Glucose, 10 HEPES (pH adjusted to 7.35 with NaOH) and the apical solution contained (in mM) 145 NaGluconate, 1.2 MgCl2, 1.2 CaCl2, 10 glucose, 10 HEPES (pH adjusted to 7.35 with NaOH).
Typical protocol utilized a basolateral to apical membrane Cl^− concentration gradient. To set up this gradient, normal ringers was used on the basolateral membrane, whereas apical NaCl was replaced by equimolar sodium gluconate (titrated to pH 7.4 with NaOH) to give a large Cl^− concentration gradient across the epithelium. Modulators were added either to the basolateral side […] to assay or to the apical side during the assay. Forskolin (10 μM) was added to the apical side during the assay to stimulate CFTR-mediated Cl^− transport. […]

Each structure is given as a SMILES string.

Human Serum Albumin (HSA), sequence (P02768 25-609): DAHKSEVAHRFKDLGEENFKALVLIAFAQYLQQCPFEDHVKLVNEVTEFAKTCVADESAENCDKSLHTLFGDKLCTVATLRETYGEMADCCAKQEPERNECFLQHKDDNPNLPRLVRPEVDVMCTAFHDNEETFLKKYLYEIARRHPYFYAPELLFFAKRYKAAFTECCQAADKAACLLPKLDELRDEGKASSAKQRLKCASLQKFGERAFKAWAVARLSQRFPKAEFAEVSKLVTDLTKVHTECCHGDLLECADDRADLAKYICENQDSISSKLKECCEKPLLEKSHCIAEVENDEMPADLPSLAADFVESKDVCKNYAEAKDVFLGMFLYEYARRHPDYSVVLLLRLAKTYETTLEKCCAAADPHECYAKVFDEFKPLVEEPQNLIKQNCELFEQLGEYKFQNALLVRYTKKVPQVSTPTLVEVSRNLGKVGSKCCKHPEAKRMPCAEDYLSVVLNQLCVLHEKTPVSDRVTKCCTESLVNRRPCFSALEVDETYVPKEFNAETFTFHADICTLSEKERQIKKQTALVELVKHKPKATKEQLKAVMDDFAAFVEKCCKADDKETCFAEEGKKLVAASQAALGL

On to `C[C@@H]1CN(c2nc(-n3ccc(OCC4(C(F)(F)F)CC4)n3)ccc2C(=O)NS(=O)(=O)c2ccccc2)C(C)(C)C1` [drawing 337], for which the HSA binding in series [1] was 99.1%.
In series [1], `C[C@@H]1CN(c2nc(-n3ccc(OCC4(C(F)(F)F)CC4)n3)ccc2C(=O)NS(=N)(=O)c2ccccc2)C(C)(C)C1` (mixture of isomers) displayed an HSA binding of 98.1%.
Regarding `CC(C)(C)c1cc(C(C)(C)C)c(NC(=O)c2c[nH]c3ccccc3c2=O)cc1O` [Compound III, N-(5-hydroxy-2,4-di-tert-butyl-phenyl)-4-oxo-1H-quinoline-3-carboxamide, reference compound], the “potentiation of F508del-CFTR delivered to the cell surface by Compound I alone or in combination with Compound II” value in series [2] was “potentiated”.
Regarding `C[C@@H]1CN(c2nc(-n3ccc(OCC4(C(F)(F)F)CC4)n3)ccc2C(=O)NS(=N)(=O)c2ccccc2)C(C)(C)C1` (single isomer, unassigned) [drawing 340], the HSA binding in series [1] worked out at 98.4%.
In the case of `C[C@@H]1CN(c2nc(-n3ccc(OCC4(C(F)(F)F)CC4)n3)ccc2C(=O)NS(=N)(=O)c2ccccc2)C(C)(C)C1` (single isomer, unassigned) [drawing 339], in series [1], the HSA binding was determined as 97.9%.
